Data reported in US10864251B2, “Peptides of syndecan-1 for inhibiting angiogenesis” (Wisconsin Alumni Research Foundation, priority 2006, dated 2020).

Experiments:
Assay type in all cases: cell-based
[1] = system: human dermal microvascular endothelial cells (HMEC-1); details: HMEC-1, truncated peptides compared to SSTN82-130, FIG. 14
Description: FIGS. 6A-6H—Inhibition of B82L fibroblast and HMEC-1 cell attachment and spreading on VN by synstatin82-130. B82L fibroblasts, which rely on the αvβ5 integrin for attachment to VN, and human dermal microvascular endothelial cells, which rely on both the αvβ3 and αvβ5 integrins for attachment to VN, were plated in the absence of peptide (FIGS. 6A, 6E) or in the presence of 0.1 (FIGS. 6B, 6F), 0.3 (FIGS. 6C, 6G) or 1 μM (FIGS. 6D, 6H) synstatin82-130 for 2 hr and processed as described in FIG. 2.
FIGS. 10A-10D—Dependence of HMEC cell attachment and spreading on integrin activation by Sdc1 and its inhibition by SSTN. (FIG. 10A) HMECs were plated for 2 hr either on Sdc1-specific antibody B-B4 to engage Sdc1 or on VN (10 μg/ml coating concentration) to engage the αvβ3 and αvβ5 integrins. Blocking antibodies LM609 (10 μg/ml, specific for αvβ3) and P1F6 (10 μg/ml, specific for αvβ5), SSTN (0.5 μM) or recombinant mouse Sdc1 ectodomain (mS1ED, 5 μM) were added. The ligand mimetic antibody WOW1 was used to detect activated αvβ3 integrin on cells plated on B-B4. (FIG. 10B) HMECs were treated with siRNA oligo specific for human Sdc1 for 48 hr prior to plating on VN. Sdc1 expression was quantified by flow cytometry using human Sdc1-specific mAb B-B4 or a control mouse IgG. (FIG. 10C-10D) The percentage of cell attaching or attaching and spreading was quantified for HMECs, HAEC and MAECs plated on VN for 24 hr in the presence of mS1ED or SSTN, or after siRNA silencing of Sdc1 expression in the presence of mAb LM609 to block αvβ3 integrin, P1F6 to block αvβ5 integrin, or both antibodies.
FIG. 14—Activity of SSTN peptides. A diagram of SSTN82-130 used in our experiments is shown. The gray letters designate amino acids that are identical or highly conserved across species (mouse, human, rat, hamster). Shorter peptides have been tested using HMEC-1 endothelial cells for inhibition of […] mediated cell attachment and spreading in comparison to SSTN82-130.
(§1) Cell adhesion and spreading assays were performed with modification to the previous procedures (Lebakken and Rapraeger, 1996. Briefly, human plasma vitronectin or fibronectin at 10-30 μg/ml were applied to nitrocellulose-coated ten well slides (Erie Scientific) and incubated for 1-2 h at 37° C. Slides were blocked with 1.0% heat-denatured bovine serum albumin for a minimum of 30 min at 37° C. Cells were detached from the substratum using 5 mM EDTA in Tris-buffered saline and resuspended in HEPES-buffered culture medium containing 0.1% heat-denatured BSA. Cells were plated at a density of 15,000 cells per well and allowed to attach and spread for 2 h prior to fixation in 4% paraformaldehyde in CMF-PBS. For fluorescence microscopy, fixed cells were permeabilized in 0.2% Triton X-100, labeled with rhodamine-conjugated phalloidin and analyzed using fluorescence microscopy. For testing inhibition by recombinant mScd-1ED and synstatin82-130, cells were pre-incubated 10 min before plating in the presence of the inhibitor. […] LM609 was used as a specific block to αvβ3 and P1F6 was used as a specific blocker of αvβ5.
Finally, the inventors have examined HMEC-1 cells, which are immortalized human dermal microvascular endothelial cells. Microvascular endothelial cells are regarded as being the main source of endothelial cells that carry out angiogenesis in vivo. The HMEC-1 cells grown in serum-containing culture medium express Sdc1 (as noted earlier) and also express active αvβ3 and αvβ5 integrins. […]

[2] = system: MDA-MB-231 human mammary carcinoma cells; details: MDA-MB-231, 0.1-1.0 μM SSTN peptide, 2 hr
Description: (§2) FIGS. 5A-5F—Inhibition of MDA-MB-231 human mammary carcinoma cell attachment and spreading on VN by synstatin82-130. MDA-MB-231 human mammary carcinoma cells, which rely on the αvβ3 integrin for attachment and spreading on VN, were plated on 10 μg/ml VN for 2 hr in the absence of peptide (FIG. 5A) or in the presence of 0.1 (FIG. 5B), 0.3 (FIG. 5C) or 1 μM (FIG. 5D) synstatin82-130. The cells were fixed and stained as in FIG. 2.
(§3) FIG. 17—Human SSTN peptides inhibit αvβ3-mediated cell attachment and spreading on vitronectin. MDA-MB-231 human mammary carcinoma cells were allowed to attach and spread on either vitronectin (VN) or fibronectin (FN) during a 2 hr assay in the presence of 0, 0.1, 0.3, 0.5, 1.0 or 30 μM SSTN peptide. […] The two peptides tested are derived either from amino acids 88-121 (hSSTN 88-121) or 89-120 (hSSTN 89-120) of the human Sdc1 sequence. Adhesion to VN, but not FN, is mediated by the αvβ3 integrin on these cells and is disrupted by the human SSTN peptides.
as §1
The inventors have tested the adhesion and spreading of MDA-MB-231 mammary carcinoma cells on VN in the presence or absence of synstatin82-130. These cells rely specifically on the active αvβ3 integrin for this adhesion (Beauvais et al., 2004). Recombinant Sdc1 ectodomain (SLED) has been shown by the inventors previously to block spreading of these cells with an IC50 of about 3-10 μM (Beauvais et al., 2004). […] Thus, synstatin82-130 is a specific and effective inhibitor of αvβ3 integrin activation.

[3] = system: MDA-MB-231 human mammary carcinoma cells; assay: Cell attachment and spreading on fibronectin (control ligand), MDA-MB-231 cells; details: MDA-MB-231, 30 μM, 100-fold greater than IC50
Description: as §2
as §3, with “peptides. […]” for “peptides.”

Substance	activity in cell attachment and spreading assays on VN [1]	attachment and spreading on VN [2]	attachment and spreading on fibronectin (FN) [3]
SSTN88-121: truncated mouse SSTN peptide, amino acids 88-121 (FTSVLPAGEKPEEGEPVLHVEAEPGFTARDKEKE; UniProt P18828 88-121, looked up, fragment)	active	–	–
hSSTN 88-121: human SSTN, amino acids 88-121 of the human Sdc1 sequence, SEQ ID NO:28 (ASTSTLPAGEGPKEGEAVVLPEVEPGLTAREQEA)	–	disrupted	lack of activity
hSSTN 89-120: human SSTN, amino acids 89-120 of the human Sdc1 sequence, SEQ ID NO:21 (STSTLPAGEGPKEGEAVVLPEVEPGLTAREQE)	–	disrupted	lack of activity
